Measurements: article PMC10374545, “A small molecule inhibitor of PTP1B and PTPN2 enhances T cell anti-tumor immunity” (Nature Communications, 2023)
Values joined by “and” are separate entries in the source; they are usually repeats but may differ in a detail not shown here. Equal values may be shown once.

Columns and labels:
OT-I CD8+ T cells = assay: T cell activation assay (CD25, CD69 by flow cytometry); assay type: cell-based, mouse; conditions: for CD25, group mean (Mean 2) / CD69, group mean (Mean 2): Fig. 2A; for CD25 (MFI), single replicates / CD69 (MFI), single replicates: N4 1 nM, 1 μM, 48 h, Fig. 2A raw data
Experimental: The cell surface markers CD8, CD25, and CD69 were analyzed using fluorophore-conjugated antibodies by flow cytometry.

AT3 mammary tumors [1] = assay: AT3 tumor growth in Lck-Cre;Ptpn2fl/fl mice; assay type: in vivo, mouse; parameters: key to Tumour growth: tumour size in mm^2 (two-dimensional caliper measurement); Tumour weights / Tumour weights (mean): unit not given here; conditions: for Tumour size (mean): CMP-182 in LCK-CRE-PTPN2 mice (Group C), in mm2; for Tumour growth: individual mice (Figure 8D)
Experimental: Male or female mice were injected subcutaneously with 5 × 10^5 MC38 tumor cells resuspended in 100 μl D-PBS into the flank. Alternatively, female mice were injected orthotopically with 5 × 10^5 AT3 or AT3-OVA or PTPN2-deleted AT3 or AT3-OVA tumor cells resuspended in 20 μl D-PBS into the fourth mammary fat pad. Tumor sizes were measured in two dimensions (mm^2) using electronic callipers two to three times per week as soon as tumors were palpable (20–25 mm^2).

[2] = system: STAT-1 target genes in AT3-OVA tumors; assay: qPCR of STAT-1 target genes in AT3-OVA tumors; assay type: in vivo, mouse; parameters: key: relative expression by comparative Ct (ΔΔCt), normalized to Rps18 or Gapdh; conditions: tumour gene expression, Lck-Cre;Ptpn2flfl+CMP-182, individual mice (Figure 7F)
Experimental: For quantitative real-time PCR analysis, RNA from tumors was isolated using RNAzol (Sigma-Aldrich, St. Louis, MO), and RNA quality was assessed using a NanoDrop 2000 (Thermo Fisher Scientific, Waltham MA). mRNA was reverse-transcribed using the High-Capacity cDNA Reverse Transcription Kit (Applied Biosystems, Thermo Fisher Scientific, Waltham, MA) and processed for quantitative Real-Time PCR using the Fast SYBR Green Master Mix (Applied Biosystems, Thermo Fisher Scientific, Waltham MA) and PrimePCR™ SYBR Green Assays (Bio-Rad, Hercules, CA) for Cxcl9 (qMmuCID0023784), Cxcl10 (qMmuCED0049500), Tapbp (qMmuCEP0035035), Tap1 (qMmuCEP0057739), […], H2ab1 (qMmuCIP0029038), Cd274 (qMmuCED0044192), H2k1 (qMmuCEP0034842), Tnf (qMmuCED0004141) and Ifng (qMmuCID0006268). Relative gene expression was determined by normalization to the house-keeping gene Rps18 (qMmuCED0045430) or Gapdh (qMmuCED0027497). Gene quantification was performed with the comparative Ct (ΔΔCt) method.

AT3 mammary tumors [3] = assay: Tumor-infiltrating lymphocytes in AT3 tumors, Compound 182 with α-PD-1; assay type: in vivo, mouse; parameters: CD4 EM / CD8 EM / IFNg+ TNF+ / GRZMB / MDSCs / NK cells / Tregs: unit not given here
Experimental: In addition, mice received four intraperitoneal injections of α-PD-1 (200 μg in 200 μl D-PBS; clone RMP1-14), or rat IgG2a isotype control (100 μg in 200 μl D-PBS, Bio X Cell) twice per week.
Tumor-bearing mice were sacrificed and tumors were excised and digested at 37 °C for 30 min using a cocktail of 1 mg/ml collagenase type IV (Worthington Biochemicals) and 0.02 mg/ml DNase I (Sigma-Aldrich) in DMEM supplemented with 2% (v/v) FBS. Cells were passed through a 70 μm cell strainer (BD Biosciences) twice and processed for flow cytometry. For assessing T cell activation, cells were surface stained with fluorophore-conjugated antibodies to CD62L, CD44, PD-1, and TIM-3. For the assessment of NK cells, B cells, myeloid-derived suppressor cells (MDSCs), dendritic cells (DCs), and tumor-associated macrophages, cells were surface stained with fluorophore-conjugated antibodies to NK1.1, TCRβ, CD19, CD11b, CD11c, F4/80, Ly6C and Ly6G. For the detection of intracellular cytokines TNF and IFNγ, T cells were stimulated with PMA (20 ng/ml; Sigma-Aldrich) and ionomycin (1 μg/ml; Sigma-Aldrich) in the presence of GolgiPlug™ and GolgiStop™ (BD Biosciences) for 4 h at 37 °C in complete T cell medium. For the intracellular detection of granzyme B, cells were processed untreated without the addition of BD GolgiPlug™ and BD GolgiStop™.

[4] = Lck-Cre;Ptpn2fl/fl (2K) OT-I cells, listed as 2KI
[5] = wild type OT-I cells + inhibitor, n 6
[6] = wild type OT-I cells, listed as WTI
[7] = Figure 9D, tumour-infiltrating cells, AT-3, individual mice, listed as CMP-182
[8] = Figure 9E, AT-3, individual mice, listed as CMP-182
[9] = Figure 9F, tumour-infiltrating cells, AT-3, individual mice, listed as CMP-182

## CC(C)(O)CCOc1ccc2cc(O)c(N3CC(=O)NS3(=O)=O)c(F)c2c1 [Compound 182, 5-(1-Fluoro-3-hydroxy-7-(3-hydroxy-3-methylbutoxy)naphthalen-2-yl)−1,2,5-thiadiazolidin-3-one 1,1-dioxide]
OT-I CD8+ T cells; 2K OT-I cells + inhibitor, n 4
  CD25, group mean (Mean 2): 49238
  CD69, group mean (Mean 2): 3065
OT-I CD8+ T cells; [4]
  CD25 (MFI), single replicates: 50690 and 58145 and 42341 and 45775
  CD69 (MFI), single replicates: 3049 and 3660 and 3360 and 2191
OT-I CD8+ T cells; OT-I cells, SIINFEKL (N4)
  antigen-induced activation of CD8+ T cells (CD25, CD69): enhanced
OT-I CD8+ T cells; [5]
  CD25, group mean (Mean 2): 43739
  CD69, group mean (Mean 2): 2723
OT-I CD8+ T cells; [6]
  CD25 (MFI), single replicates: 44120 and 42537 and 42315 and 46694 and 45914 and 40851
  CD69 (MFI), single replicates: 2509 and 2213 and 3486 and 2750 and 2693 and 2686
AT3 mammary tumors [1]; 10 mg/kg i.v., beyond PTPN2 deletion in T cells
  AT3 tumor growth in Lck-Cre;Ptpn2fl/fl mice: further suppressed tumor growth
AT3 mammary tumors [1]; 10 mg/kg i.v., tumors eradicated/total
  eradication of AT3 tumors in Lck-Cre;Ptpn2fl/fl mice: 3/6
AT3 mammary tumors [1]; AT-3 tumours, CMP-182 in LCK-CRE-PTPN2 mice
  Tumour weights (mean): 7
AT3 mammary tumors [1]; AT-3 tumours, time point 7
  Tumour size (mean): 19.03
AT3 mammary tumors [1]; AT-3 tumours, time point 10
  Tumour size (mean): 21.39
AT3 mammary tumors [1]; AT-3 tumours, time point 12
  Tumour size (mean): 20.59
AT3 mammary tumors [1]; AT-3 tumours, time point 14
  Tumour size (mean): 19.84
AT3 mammary tumors [1]; AT-3 tumours, time point 16
  Tumour size (mean): 13.84
AT3 mammary tumors [1]; AT-3 tumours, time point 19
  Tumour size (mean): 12.75
AT3 mammary tumors [1]; AT-3 tumours, time point 21
  Tumour size (mean): 13.01
AT3 mammary tumors [1]; AT-3 tumours, time point 23
  Tumour size (mean): 11.77
AT3 mammary tumors [1]; AT-3 tumours, CMP-182 in LCK-CRE-PTPN2 mice, n=6
  Tumour weights, median: 7.500, n=6
AT3 mammary tumors [1]; AT-3 tumours, LCK-CRE-PTPN2 mice n=6, day 7 post injection, listed as CMP-182
  Tumour growth: 13.566 (2×) and 20.8844 (2×) and 21.6987 (2×) and 6.7144 (2×) and 16.1674 (2×) and 35.1652 (2×)
AT3 mammary tumors [1]; AT-3 tumours, LCK-CRE-PTPN2 mice n=6, day 10 post injection, listed as CMP-182
  Tumour growth: 12.25 (2×) and 27.03 (2×) and 24 (2×) and 10.5 (2×) and 18.4 (2×) and 36.18 (2×)
AT3 mammary tumors [1]; AT-3 tumours, LCK-CRE-PTPN2 mice n=6, day 12 post injection, listed as CMP-182
  Tumour growth: 9 (2×) and 29.15 (2×) and 22.5 (2×) and 12.6 (2×) and 15.2 (2×) and 35.1 (2×)
AT3 mammary tumors [1]; AT-3 tumours, LCK-CRE-PTPN2 mice n=6, day 14 post injection, listed as CMP-182
  Tumour growth: 9 (2×) and 25.92 (2×) and 22.5 (2×) and 13.32 (2×) and 14.35 (2×) and 33.92 (2×)
AT3 mammary tumors [1]; AT-3 tumours, LCK-CRE-PTPN2 mice n=6, day 16 post injection, listed as CMP-182
  Tumour growth: 0 (4×) and 24.48 (2×) and 22.95 (2×) and 7.5 (2×) and 28.08 (2×)
AT3 mammary tumors [1]; AT-3 tumours, LCK-CRE-PTPN2 mice n=6, day 19 post injection, listed as CMP-182
  Tumour growth: 0 (4×) and 22.55 (2×) and 22.95 (2×) and 4 (2×) and 27 (2×)
AT3 mammary tumors [1]; AT-3 tumours, LCK-CRE-PTPN2 mice n=6, day 21 post injection, listed as CMP-182
  Tumour growth: 0 (4×) and 27.56 (2×) and 22.5 (2×) and 4 (2×) and 24 (2×)
AT3 mammary tumors [1]; AT-3 tumours, LCK-CRE-PTPN2 mice n=6, day 23 post injection, listed as CMP-182
  Tumour growth: 0 (4×) and 25 (2×) and 22.54 (2×) and 1 (2×) and 22.08 (2×)
AT3 mammary tumors [1]; AT-3 tumours, LCK-CRE-PTPN2 mice n=6, individual mice (Figure 8D), listed as CMP-182
  Tumour weights: 0 and 12 and 10 and 5 and 15
[2]
  H2-Ab1: 1.37 and 2.449 and 1.819 and 1.855 and 0.6743 and 0.4848
  IFNg: 2.663 and 2.871 and 3.337 and 2.746 and 0.6434 and 0.3583
  cd274: 1.409 and 1.249 and 1.434 and 1.371 and 1.147 and 0.5391
  cxcl9: 1.651 and 1.828 and 1.511 and 1.806 and 0.4356 and 0.3111
  cxcl10: 1.078 and 1.3193 and 1.359 and 1.098 and 0.6504 and 0.3928
AT3 mammary tumors [3]; Compound 182 10 mg/kg i.v. + α-PD-1 200 μg i.p.
  recruitment of CD4+ and CD8+ effector/memory T cells, combination therapy: synergistic recruitment
AT3 mammary tumors [3]; [7]
  CD4 EM: 43342.4 and 57673.5 and 79430.7 and 97780.3 and 96326.3 and 45818.5
  CD8 EM: 103472 and 141360 and 229947 and 172459 and 191087 and 113353
AT3 mammary tumors [3]; [8]
  GRZMB: 24.8 and 18.9 and 21.2 and 17 and 24 and 19.1
  PD-1 TIM-3: 32.5 and 47.7 and 47.8 and 31.8 and 39.5 and 41.5
AT3 mammary tumors [3]; Figure 9E, first IFNg+ TNF+ panel, AT-3, individual mice, listed as CMP-182
  IFNg+ TNF+: 7.74 and 4.13 and 7.71 and 10.5 and 16.5 and 3.24
AT3 mammary tumors [3]; Figure 9E, second IFNg+ TNF+ panel, AT-3, individual mice, listed as CMP-182
  IFNg+ TNF+: 19 and 26.4 and 15.4 and 31.9 and 43.5 and 25.3
AT3 mammary tumors [3]; [9]
  MDSCs: 15172.6 and 12646.1 and 18636.2 and 29520.3 and 27688.9 and 13342.8
  NK cells: 41998.7 and 24391.4 and 32687 and 55002.2 and 59698.1 and 23635.5
  Tregs: 32249.8 and 40798.3 and 43823.5 and 55176.6 and 44430.4 and 6773.49
